From patent US20100130436A1, “CO-ADMINISTRATION OF RANOLAZINE AND CARDIAC GLYCOSIDES” (priority 2008, published 2010)

Key:
[1] = test system: [Na+]i of guinea pig isolated heart; test: 23Na-NMR spectroscopy of intracellular sodium concentration in isolated heart; details: for [Na+]i: absence of ranolazine, n=4
[2] = test system: guinea pig isolated, perfused heart; test: 31P-NMR spectroscopy of energy-related phosphates and pHi in isolated heart
[3] = test system: Na+, K+-ATPase; test: Na+,K+-ATPase activity assay by 86Rb+ uptake of A7r5 cells; assay type: cell-based; details: 1 mmol/L ouabain, absence of ranolazine
From the text: The activity of Na^+, K^+-ATPase was inhibited 77% by 1 mmol/L ouabain in the absence (control) of ranolazine. Values of ^86Rb^+ uptake were 91±11, 98±2.5, and 93±8.3% of control (activity in presence of ouabain) in the presence of 3, 10, and 30 μmol/L ranolazine, respectively.

[4] = test system: late sodium current (late INa); test: Whole-cell patch-clamp of late INa in isolated ventricular myocytes; assay type: cell-based, guinea pig
[5] = test system: guinea pig isolated, perfused heart
[6] = test system: cat papillary muscles; details: 1.37 μmol/L ouabain, Lee et al. 1960; cited from earlier work
[7] = test system: cardiac tissues; details: Heers et al. 1991; Damiano et al. 1991; cited from earlier work
[8] = 0.75 μmol/L ouabain for 60 min, n=5
[9] = Example 1, ouabain-alone treated hearts
[10] = after ouabain treatment (discussion)
[11] = FIG. 1, after ouabain without ranolazine

C[C@@H]1O[C@@H](O[C@H]2C[C@@H](O)[C@]3(CO)[C@H]4[C@H](O)C[C@]5(C)[C@@H](C6=CC(=O)OC6)CC[C@]5(O)[C@@H]4CC[C@]3(O)C2)[C@H](O)[C@H](O)[C@H]1O [ouabain]
[Na+]i ([1]; 0.75 μmol/L ouabain for 40 min): 14.9 ± 0.9 mmol/L | [Na+]i ([1]; 0.75 μmol/L ouabain for 76 min): 18.1 ± 0.9 mmol/L | [Na+]i plateau level ([1]; 1.3 μmol/L ouabain alone, n=6): 22.9 ± 0.7 mmol/L | increase of [Na+]i ([1]; 1.3 μmol/L ouabain, at 60 min): 3.3 -fold | [Na+]i after washout of ouabain for 20 min ([1]; after 1.3 μmol/L ouabain, n=5): 10.3 ± 1.8 mmol/L | [ATP] decline [2, 8]: 55±6% | [PCr] decline [2, 8]: 56±7% | [Pi] increase [2, 8]: 3.7±0.9 -fold | [Pi] before washout ([2]; 0.75 μmol/L ouabain for 60 min, control 2.9±0.2): 9.1 ± 0.5 mmol/L | pHi ([2]; 0.75 μmol/L ouabain for 60 min, control 7.15±0.01): 7.07±0.01 | decrease of |ΔG~ATP| ([2]; 0.75 μmol/L ouabain for 60 min, control 59.2 kJ/mol): 1.72 ± 0.287 kcal/mol | ATP content reduced by [2, 9]: 64% | intracellular inorganic phosphate (Pi) increase [2, 9]: 4.8 fold | phosphocreatine (PCr) content reduced by [2, 9]: 59% | pH ([2]; Example 1, ouabain-alone treated hearts, baseline 7.14): 7.07 | [Pi] after 20-min washout ([2]; after 0.75 μmol/L ouabain): 5.8 ± 0.4 mmol/L | pHi after 20-min washout ([2]; after 0.75 μmol/L ouabain): 7.15 | loss of [ATP] and [PCr] [2, 10]: over 50% | reduction of the value of |ΔG~ATP| [2, 10]: 1.7 kcal/mol | activity of Na+, K+-ATPase inhibited [3]: 77% | integrated late INa ([4]; 3 to 5-min exposure to ouabain 1 μmol/L, from 23.5±4.9, n=8): 99.6±15.2 pC/pF | late INa ([4]; ouabain alone 1 μmol/L, 5-10 min, from 21±2, n=6): 84±12 pC/pF | increase of late INa ([4]; ouabain alone 1 μmol/L, 5-10 min, n=6): 318±74% | hearts with episodes of cardiac standstill ([5]; 0.75 μmol/L ouabain for 60 min, alone): 11 out of 13 | LVSP ([5]; 0.75 μmol/L ouabain, from 96±2 mmHg, n=13): 148±6 mmHg | RPP ([5]; 0.75 μmol/L ouabain, from 26,497±664 mmHg/min, n=13): 40,676±1159 mmHg/min | increase of LVSP ([5]; 0.75 μmol/L ouabain, n=13): 55±5% | increase of RPP ([5]; 0.75 μmol/L ouabain, n=13): 59±6% | diastolic function (pressure) during 20 min wash out [5, 11]: 34 mmHg | systolic pressure during 20 min wash out [5, 11]: 70 mmHg | Left ventricular systolic pressure, maximum upon infusion with ouabain ([5]; FIG. 1 representative tracing, ouabain without ranolazine, baseline 101 mmHg): 140 mmHg | EDP during toxic effect of ouabain ([5]; FIG. 1 representative tracing, ouabain without ranolazine, increase from 8 mmHg): 45 mmHg | developed pressure ([5]; FIG. 7, ouabain-only treated hearts): significantly decreased | LVDevP at the end of washout ([5]; ouabain alone, control 89.1±1.0 mmHg): 36.4±5.9 mmHg | reduction of [ATP] [6]: 42% | reduction of [PCr] [6]: 66%

CN(c1nc2ccccc2s1)C1CCN(CCCCOc2ccc(F)cc2)CC1 [R56865]
sodium and calcium overload during exposure to cardiac glycosides [7]: reduce sodium and calcium overload
